According to patent publication US20250230193A1, “CYCLIC COMPOUND HAVING SELECTIVE KRAS INHIBITORY EFFECT ON HRAS AND NRAS” (CHUGAI SEIYAKU KABUSHIKI KAISHA, priority 2022, published 2025):

Tests used:
[1] = tested on: human lung cancer strain NCI-H441; assay: cells; settings: NCI-H441, 96 h, read-out: NCI-H441 IC50 (nM)
[2] = target: GDP-bound HRAS wild-type protein (Homo sapiens, UniProt P01112); assay: Binding to HRAS by surface plasmon resonance (SPR), Single Cycle Kinetics; settings: SPR; KD ratio class
[3] = target: GDP-bound NRAS wild-type protein (Homo sapiens, UniProt P01111); assay: Binding to NRAS by surface plasmon resonance (SPR), Single Cycle Kinetics; settings: SPR; KD ratio class
Sequence of GDP-bound NRAS wild-type protein (P01111 whole entry): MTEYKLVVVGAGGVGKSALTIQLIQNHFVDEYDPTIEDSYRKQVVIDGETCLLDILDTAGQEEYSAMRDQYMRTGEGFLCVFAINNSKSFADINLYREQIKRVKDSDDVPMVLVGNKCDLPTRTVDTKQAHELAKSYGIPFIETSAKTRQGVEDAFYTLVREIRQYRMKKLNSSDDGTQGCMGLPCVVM

Sequence of GDP-bound HRAS wild-type protein (P01112 whole entry): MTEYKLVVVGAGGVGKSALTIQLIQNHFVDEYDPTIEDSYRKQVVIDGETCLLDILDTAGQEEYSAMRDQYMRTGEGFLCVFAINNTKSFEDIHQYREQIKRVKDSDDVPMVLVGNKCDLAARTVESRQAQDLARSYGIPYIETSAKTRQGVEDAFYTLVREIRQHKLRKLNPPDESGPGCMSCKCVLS

SMILES | IC50 [1] | HRAS/KRAS (ratio of KD value for GDP-bound HRAS wild-type protein to KD value for KRAS) [2] | NRAS/KRAS (ratio of KD value for GDP-bound NRAS wild-type protein to KD value for KRAS) [3]
CCO[C@@H]1C[C@H]2C(=O)NC3(CCC3)C(=O)N(C)[C@@H](C3CCCC3)C(=O)N(C)[C@H](C(=O)N3CCOCC3)CC(=O)N(C)[C@@H](CC(C)C)C(=O)N[C@@H]([C@@H](C)CC)C(=O)N3CC[C@H]3C(=O)N(C)[C@H]3CC[C@@H](C)CN(C3=O)[C@@H](Cc3ccc(C(F)(F)F)cc3)C(=O)N(C)CC(=O)N[C@@H](CCc3ccc(C(F)(F)F)c(Cl)c3)C(=O)N2C1 [PP1379] | 10.3 nM | B (a compound having 3 or more and less than 10 is denoted as B) | A (a compound having 10 or more and less than 20 is denoted as A)
CCO[C@@H]1C[C@H]2C(=O)NC3(CCC3)C(=O)N(C)[C@@H](C3CCCC3)C(=O)N(C)[C@H](C(=O)N3CCC3)CC(=O)N(C)[C@@H](CC)C(=O)N[C@@H]([C@@H](C)CC)C(=O)N(C)CC(=O)N(C)[C@H]3C/C=C\CCN(C3=O)[C@@H](CC3CCCCC3)C(=O)N(C)CC(=O)N[C@@H](CCc3cc(F)c(C(F)(F)F)c(F)c3)C(=O)N2C1 [PP1445] | 92.8 nM | A (a compound having 10 or more and less than 20 is denoted as A) | A (a compound having 10 or more and less than 20 is denoted as A)
CCO[C@@H]1C[C@H]2C(=O)NC3(CCC3)C(=O)N(C)[C@@H](C(CC)CC)C(=O)N(C)[C@H](C(=O)N(C)C)CC(=O)N(C)[C@@H](CC3CC3)C(=O)N[C@@H]([C@@H](C)CC)C(=O)N(C)CC(=O)N(C)[C@H]3C/C=C\CCN(C3=O)[C@@H](Cc3ccc(C(F)(F)F)cc3)C(=O)N(C)CC(=O)N[C@@H](CCc3cc(F)c(C(F)(F)F)c(F)c3)C(=O)N2C1 [PP1203] | 20.8 nM | A (a compound having 10 or more and less than 20 is denoted as A) | A (a compound having 10 or more and less than 20 is denoted as A)
CCO[C@@H]1C[C@H]2C(=O)NC3(CCCC3)C(=O)N(C)[C@@H](C3CCCC3)C(=O)N(C)[C@H](C(=O)N(C)C)CC(=O)N(C)[C@@H](CC(C)C)C(=O)N[C@@H]([C@@H](C)CC)C(=O)N(C)CC(=O)N(C)[C@H]3C/C=C\CCN(C3=O)[C@@H](CC3CCC(F)(F)CC3)C(=O)N(C)CC(=O)N[C@@H](CCc3cc(F)c(C(F)(F)F)c(F)c3)C(=O)N2C1 [PP1459] | 38.6 nM | A (a compound having 10 or more and less than 20 is denoted as A) | A (a compound having 10 or more and less than 20 is denoted as A)
CCCOC[C@H]1C(=O)N[C@@H]([C@@H](C)CC)C(=O)N(C)CC(=O)N(C)[C@H]2C/C=C\CCN(C2=O)[C@@H](Cc2ccc(C)cc2)C(=O)N(C)CC(=O)N[C@@H](CCc2cc(F)c(C(F)(F)F)c(F)c2)C(=O)N2C[C@H](OCC)C[C@H]2C(=O)NC2(CC(C)(C)C2)C(=O)N(C)[C@@H](C2CCCC2)C(=O)N(C)[C@H](C(=O)N(C)CC)CC(=O)N1C [PP1577] | 6.7 nM | B (a compound having 3 or more and less than 10 is denoted as B) | B (a compound having 3 or more and less than 10 is denoted as B)
CCO[C@@H]1C[C@H]2C(=O)NC3(CCC3)C(=O)N(C)[C@@H](C3CCCC3)C(=O)N(C)[C@H](C(=O)N(C)C)CC(=O)N(C)[C@@H](CC3CC3)C(=O)N[C@@H]([C@@H](C)CC)C(=O)N(C)CC(=O)N(C)[C@H]3C/C=C\CCN(C3=O)[C@@H](Cc3ccc(C(F)(F)F)cc3)C(=O)N(C)CC(=O)N[C@@H](CCc3ccc4sccc4c3)C(=O)N2C1 [PP1260] | 60.4 nM | A (a compound having 10 or more and less than 20 is denoted as A) | A (a compound having 10 or more and less than 20 is denoted as A)
CCO[C@@H]1C[C@H]2C(=O)NC3(CCC3)C(=O)N(C)[C@@H](C3CCCC3)C(=O)N(C)[C@H](C(=O)N(C)C)CC(=O)N(C)[C@@H](CC(C)(C)C)C(=O)N[C@@H]([C@@H](C)CC)C(=O)N(C)CC(=O)N(C)[C@H]3C/C=C\CCN(C3=O)[C@@H](CC3CCC(F)(F)CC3)C(=O)N(C)CC(=O)N[C@@H](CCc3cc(F)c(C(F)(F)F)c(F)c3)C(=O)N2C1 [PP1460] | 32.9 nM | A (a compound having 10 or more and less than 20 is denoted as A) | A (a compound having 10 or more and less than 20 is denoted as A)
CCO[C@@H]1C[C@H]2C(=O)NC3(CCC3)C(=O)N(C)[C@@H](C3CCCC3)C(=O)N(C)[C@H](C(=O)N3CCC3)CC(=O)N(C)[C@@H](CC)C(=O)N[C@@H]([C@@H](C)CC)C(=O)N(C)CC(=O)N(C)[C@H]3C/C=C\CCN(C3=O)[C@@H](CC3CCC(F)(F)CC3)C(=O)N(C)CC(=O)N[C@@H](CCc3cc(F)c(C(F)(F)F)c(F)c3)C(=O)N2C1 [PP1444] | 103 nM | A (a compound having 10 or more and less than 20 is denoted as A) | A (a compound having 10 or more and less than 20 is denoted as A)
CCO[C@@H]1C[C@H]2C(=O)NC3(CCC3)C(=O)N(C)[C@@H](C3CCCC3)C(=O)N(C)[C@H](C(=O)N3CCOCC3)CC(=O)N(C)[C@@H](CC3CCC3)C(=O)N[C@@H]([C@@H](C)CC)C(=O)N(C)CC(=O)N(C)[C@H]3C/C=C\CCN(C3=O)[C@@H](Cc3ccc(C(F)(F)F)cc3)C(=O)N(C)CC(=O)N[C@@H](CCc3cc(F)c(C(F)(F)F)c(F)c3)C(=O)N2C1 [PP1422] | 14.1 nM | A (a compound having 10 or more and less than 20 is denoted as A) | AA (a compound having 20 or more is denoted as AA)
CCO[C@@H]1C[C@H]2C(=O)NC3(CCCC3)C(=O)N(C)[C@@H](C3CCCC3)C(=O)N(C)[C@H](C(=O)N(C)C)CC(=O)N(C)[C@@H](CC)C(=O)N[C@@H]([C@@H](C)CC)C(=O)N(C)CC(=O)N(C)[C@H]3C[C@@H](C)[C@@H](C)CN(C3=O)[C@@H](Cc3ccc(C(F)(F)F)cc3)C(=O)N(C)CC(=O)N[C@@H](CCc3ccc(C(F)(F)F)c(Cl)c3)C(=O)N2C1 [PP1358] | 4.1 nM | B (a compound having 3 or more and less than 10 is denoted as B) | A (a compound having 10 or more and less than 20 is denoted as A)
CCO[C@@H]1C[C@H]2C(=O)NC3(CCCC3)C(=O)N(C)[C@@H](C3CCCC3)C(=O)N(C)[C@H](C(=O)N(C)C)CC(=O)N(C)[C@@H](C)C(=O)N[C@@H]([C@@H](C)CC)C(=O)N(C)CC(=O)N(C)[C@H]3C/C=C\CCN(C3=O)[C@@H](CC3CCCCC3)C(=O)N(C)CC(=O)N[C@@H](CCc3cc(F)c(C(F)(F)F)c(F)c3)C(=O)N2C1 [PP1470] | 111 nM | A (a compound having 10 or more and less than 20 is denoted as A) | A (a compound having 10 or more and less than 20 is denoted as A)
CCO[C@@H]1C[C@H]2C(=O)NC3(CCC3)C(=O)N(C)[C@@H](C3CCCC3)C(=O)N(C)[C@H](C(=O)N3CCOCC3)CC(=O)N(C)[C@@H](CC3CC3)C(=O)N[C@@H]([C@@H](C)CC)C(=O)N(C)CC(=O)N(C)[C@H]3C/C=C\CCN(C3=O)[C@@H](Cc3ccc(C(F)(F)F)cc3)C(=O)N(C)CC(=O)N[C@@H](CCc3cc(F)c(C(F)(F)F)c(F)c3)C(=O)N2C1 [PP1283] | 42.6 nM | A (a compound having 10 or more and less than 20 is denoted as A) | AA (a compound having 20 or more is denoted as AA)
CC[C@H](C)[C@@H]1NC(=O)[C@H](CC)N(C)C(=O)C[C@@H](C(=O)N(C)C)N(C)C(=O)[C@H](C2CCCC2)N(C)C(=O)C2(CCC2)NC(=O)[C@@H]2C[C@H](C)CN2C(=O)[C@H](CCc2cc(F)c(C(F)(F)F)c(F)c2)NC(=O)CN(C)C(=O)[C@H](CC2CCCCC2)N2CC/C=C\C[C@@H](C2=O)N(C)C(=O)CN(C)C1=O [PP1471] | 48.2 nM | A (a compound having 10 or more and less than 20 is denoted as A) | A (a compound having 10 or more and less than 20 is denoted as A)
CCO[C@@H]1C[C@H]2C(=O)NC3(CCC3)C(=O)N(C)[C@@H](C3CCCC3)C(=O)N(C)[C@H](C(=O)N(C)C)CC(=O)N(C)[C@@H](CC(C)C)C(=O)N[C@@H]([C@@H](C)CC)C(=O)N(C)CC(=O)N(C)[C@H]3C/C=C\CCN(C3=O)[C@@H](Cc3ccc(F)cc3C)C(=O)N(C)CC(=O)N[C@@H](CCc3cc(F)c(Cl)c(F)c3)C(=O)N2C1 [PP1481] | 14.8 nM | B (a compound having 3 or more and less than 10 is denoted as B) | A (a compound having 10 or more and less than 20 is denoted as A)
CCO[C@@H]1C[C@H]2C(=O)NC3(CCC3)C(=O)N(C)[C@@H](C(CC)CC)C(=O)N(C)[C@H](C(=O)N(C)C)CC(=O)N(C)[C@@H](CC(C)C)C(=O)N[C@@H]([C@@H](C)CC)C(=O)N(C)CC(=O)N(C)[C@H]3C/C=C\CCN(C3=O)[C@@H](Cc3ccc(C(F)(F)F)cc3)C(=O)N(C)CC(=O)N[C@@H](CCc3ccc(C(F)(F)F)c(OC)c3)C(=O)N2C1 [PP1209] | 15.9 nM | A (a compound having 10 or more and less than 20 is denoted as A) | AA (a compound having 20 or more is denoted as AA)
